These results are taken from patent US5851782A, “Inhibitors of ceramidase” (Duke University, priority 1996, dated 1998).

Each structure is given as a SMILES string.

Experiment [1] has as its target T1, Glucosylceramide synthase (Homo sapiens, UniProt Q16739).
T1 sequence (Q16739 1-394): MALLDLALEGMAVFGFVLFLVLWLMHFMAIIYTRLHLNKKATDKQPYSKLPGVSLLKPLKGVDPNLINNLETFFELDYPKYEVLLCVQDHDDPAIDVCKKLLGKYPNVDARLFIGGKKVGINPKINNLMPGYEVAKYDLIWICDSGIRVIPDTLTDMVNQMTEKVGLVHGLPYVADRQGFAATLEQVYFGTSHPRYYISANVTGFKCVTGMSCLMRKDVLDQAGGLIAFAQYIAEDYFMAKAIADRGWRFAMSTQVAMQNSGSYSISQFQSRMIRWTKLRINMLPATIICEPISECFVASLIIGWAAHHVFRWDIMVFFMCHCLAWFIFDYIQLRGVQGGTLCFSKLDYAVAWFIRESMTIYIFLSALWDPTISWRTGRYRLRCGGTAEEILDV
The experiment can be described thus: Glucocerebroside (glucosylceramide) synthase assay in vitro. The format is biochemical. Particulars: 20 μM. The protocol:
Glucocerebrosidase and glucocerebroside synthase assays. In vitro assays for gluccerebrosidase and for cerebroside synthase were performed as described (Abe et al, J. Biochem. (Tokyo) 11:191 (1992)).
In addition to ceramidase, inhibition of cerebroside synthase and sphingomyelin synthase or stimulation of sphingomyelinase or cerebrosidase could result in elevations in endogenous ceramide levels. Therefore, the effects of D- and L-e-MAPP were examined on these enzyme activities in vitro and in cells.

In experiment [2] the test system is ceramide-activated protein phosphatase (CAPP). The experiment can be described thus: CAPP serine/threonine phosphatase activity in vitro. Format: biochemical. The settings on record: myelin basic protein phosphorylated by protein kinase A as substrate.
In the next experiment the test system is alkaline ceramidase. Put plainly: Alkaline ceramidase activity in vitro at pH 9.0. Format: biochemical, human. The settings on record: final concentrations up to 50 μM. The protocol:
Measurement of ceramidase activity in HL-60 cells. Ceramidase activity in HL-60 cells was measured by a modification of the method of Gatt and Yavin (Methods Enzymol. 14:139 (1969)). Cells were disrupted by sonication in 0.25M sucrose, 1 mM EDTA, and centrifuged at 10,000×g for 10 min after which the supernatant was centrifuged at 100,000×g for 60 min. Ten μl of 1 mM ceramide substrate ([^3 H]C16 -ceramide) was mixed with 100 μl of Triton X-100 (0.1%) in chloroform/methanol, 2:1, and 100 μl of 0.2% sodium cholate in chloroform/methanol, 2:1, after which the solvent was evaporated under N2 at 70° C. To this mixture, 30 μl of water was added and the tubes were heated for 5 s in an 80° C. water bath and then put on ice. Fifty μl of the appropriate buffer depending on desired pH was added followed by 20 μl of 50 mM MgCl2 and 100 μl of cell extract. In experiments using inhibitors, the desired inhibitor was added in ethanol either with the substrate or directly to the final solution. The reaction mixture was incubated for 1 h at 37° C. The ^3 H-fatty acid products of ceramidase were separated by the addition of 2 ml of Dole's solution (isopropyl alcohol, heptane, NaOH), 1.2 ml of heptane, and 1 ml of water. After vortexing and centrifugation, the upper phase was discarded and the lower phase was washed twice with heptane and the upper phase discarded each time. Finally, 1 ml of 1N H2 SO4, and 2 ml of heptane were added, and after vortexing and centrifugation the upper phase was transferred for counting by liquid scintillation.
In order to evaluate the interactions of D- and L-e-MAPP with ceramidase, in vitro studies we conducted using cytosolic and membrane fractions from HL-60 cells. Initially, ceramidase activity was examined for pH dependence using tritium-labeled C16 -ceramide as substrate. […] The alkaline ceramidase activity was very similar to that described in fibroblasts and cerebellar tissue (Sugita et al, Biochim. Biophys. Acta 398:125 (1975), Wertz and Downing, FEBS Lett. 268:110 (1990)). In initial studies, the ability of this ceramidase to utilize D-e- and L-e-MAPP as substrates was investigated. […] These studies corroborate the cellular metabolism studies showing that L-e-MAPP is a substrate for ceramidase in vitro and in cells.
Next, the ability of D- and L-e-MAPP to interfere with hydrolysis of C16 -ceramide by ceramidase at pH 4.5 and 9.0 was evaluated. Inhibition of ceramidase activity by D-e-MAPP was compared to that by N-oleoylethanolamine, a putative inhibitor of acid ceramidase (Sugita et al, Biochim. Biophys. Acta 398:125 (1975)). […] The effects of N-oleoylethanolamine are consistent with the previously reported Ki of 700 μM (Sugita et al, Biochim. Biophys. Acta 398:125 (1975)). […] In contrast, D-e-MAPP was a relatively poor inhibitor of acid ceramidase with less than 10% inhibition of acid ceramidase at 50 μM (FIG. 6C).

Experiment [3] has as its target T2, acid ceramidase (Homo sapiens, UniProt Q13510).
T2 sequence (Q13510 22-395): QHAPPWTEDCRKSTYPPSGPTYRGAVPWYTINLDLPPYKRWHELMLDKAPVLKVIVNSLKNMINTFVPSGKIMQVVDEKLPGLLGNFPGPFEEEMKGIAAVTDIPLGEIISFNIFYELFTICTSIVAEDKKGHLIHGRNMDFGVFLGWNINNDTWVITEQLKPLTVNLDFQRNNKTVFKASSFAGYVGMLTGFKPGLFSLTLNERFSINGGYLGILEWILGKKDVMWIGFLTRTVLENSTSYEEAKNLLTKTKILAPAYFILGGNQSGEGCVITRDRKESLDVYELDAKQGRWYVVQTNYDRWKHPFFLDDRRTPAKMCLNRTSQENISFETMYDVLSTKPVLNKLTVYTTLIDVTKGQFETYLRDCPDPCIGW
The experiment can be described thus: Acid ceramidase activity in vitro at pH 4.5. Further details: Ceramidase activity was determined from total homogenates of HL-60 cells; endogenous in cells; host or cells: HL-60 cells. The format is biochemical. The settings on record: pH 4.5, 50 μM C16-ceramide substrate.
Procedure: Measurement of ceramidase activity in HL-60 cells. Ceramidase activity in HL-60 cells was measured by a modification of the method of Gatt and Yavin (Methods Enzymol. 14:139 (1969)). Cells were disrupted by sonication in 0.25M sucrose, 1 mM EDTA, and centrifuged at 10,000×g for 10 min after which the supernatant was centrifuged at 100,000×g for 60 min. Ten μl of 1 mM ceramide substrate ([^3 H]C16 -ceramide) was mixed with 100 μl of Triton X-100 (0.1%) in chloroform/methanol, 2:1, and 100 μl of 0.2% sodium cholate in chloroform/methanol, 2:1, after which the solvent was evaporated under N2 at 70° C. To this mixture, 30 μl of water was added and the tubes were heated for 5 s in an 80° C. water bath and then put on ice. Fifty μl of the appropriate buffer depending on desired pH was added followed by 20 μl of 50 mM MgCl2 and 100 μl of cell extract. In experiments using inhibitors, the desired inhibitor was added in ethanol either with the substrate or directly to the final solution. The reaction mixture was incubated for 1 h at 37° C. The ^3 H-fatty acid products of ceramidase were separated by the addition of 2 ml of Dole's solution (isopropyl alcohol, heptane, NaOH), 1.2 ml of heptane, and 1 ml of water. After vortexing and centrifugation, the upper phase was discarded and the lower phase was washed twice with heptane and the upper phase discarded each time. […]

In experiment [4] the target is T2, acid ceramidase. Particulars: Sugita et al, Biochim. Biophys. Acta 398:125 (1975); read-out: previously reported Ki; cited from earlier work.
Experiment [5] deals with HL-60 human myelocytic leukemia cells. Put plainly: HL-60 cell proliferation (cell counting). Format: cell-based. Particulars: HL-60, 3 μM D-MAPP plus fumonisin B1, 48 h. The protocol:
Proliferation and cell cycle studies. HL-60 human myelocytic leukemia cells (obtained from the American Type Culture Collection) were grown in RPMI 1640 medium containing 10 fetal calf serum at 37° C. in 5% CO2 incubator. For proliferation and cell cycle studies, cells were resuspended at a density of 2×10^5 cells/ml in serum-free media containing insulin (5 mg/liter) and transferrin (5 mg/liter) and sodium selenite (5 μg/liter) for 2-4 h. Cells were then treated with the indicated compounds. Ethanol concentration was always maintained at less than 0.1%. Cell proliferation was determined by counting cells using a hemacytometer, cell viability was evaluated by trypan blue dye exclusion, and cell cycle analysis was determined by propidium iodide flow cytometry as described (Chao et al, J. Biol. Chem. 267:23459 (1992)).
In structure-function analysis of ceramide-mediated growth suppression using amides of phenylaminoalcohols, D- and L-erythro-MAPP were employed. In these studies, HL-60 cells were treated with 5 μM of either D-e-MAPP or L-e-MAPP, and growth was determined at the indicated time points (FIG. 2A).
Studies were conducted examining the uptake and metabolism of D- and L-MAPP. In the first set of studies, the effect of duration of exposure of HL-60 cells to D-e-MAPP on the bioactivity of the molecule was determined. D-e-MAPP added to cells could be washed off by repeated sedimentation and washing of cells. Thus, after five cycles of washing, less than 10% of D-MAPP remained associated with the cell pellet-compared to unwashed cells (FIG. 5A).

As for `CCCCCCCCCCCCCC(=O)NC(CN1CCOCC1)C(O)c1ccccc1` (stereo not shown) [PMMP, reference compound], the Glucosylceramide synthase activity in experiment [1] (Control 1.009 ± 0.0424) is listed as 0.208 ± 0.008 nmol/h/mg protein. For the same compound, in experiment [1] (Table I), the “inhibition of cerebroside synthase activity” value is recorded as “significant inhibition”. With `CCCCCCCCCCCCC/C=C/[C@@H](O)[C@H](CO)NC(=O)CCCCC` [C6 -ceramide, reference compound], in experiment [2], the “activation of CAPP in vitro” value is on record as “concentration-dependent stimulation of activity”. Broadly, the IC50 is the concentration at which inhibition is half-maximal. Low readings indicate greater potency in that assay, high ones weaker potency in that assay. A word on the Ki: it is a dissociation constant, usually derived from enzyme kinetics or from competition with a known ligand. For `CCCCCCCC/C=C\CCCCCCCC(=O)NCCO` [N-oleoylethanolamine, reference compound], in the experiment on alkaline ceramidase, the “inhibition of alkaline ceramidase in vitro” value is “less than 10%”. The compound also showed an IC50 against acid ceramidase [3] of approximately 500 µM. Besides, the Ki at acid ceramidase [4] was 700 µM. For `CCCCC(C)C(OC(=O)CC(CC(=O)O)C(=O)O)C(CC(C)CC(O)CCCCC(O)CC(O)C(C)N)OC(=O)CC(CC(=O)O)C(=O)O` (stereo not shown) [fumonisin B1, reference compound], the “effect on growth suppression by D-e-MAPP” value in experiment [5] is “did not inhibit the effects of D-e-MAPP on growth”.
